From article PMC8245654, “Extended JAZ degron sequence for plant hormone binding in jasmonate co-receptor of tomato SlCOI1-SlJAZ” (Scientific Reports, 2021)
pKd: −log10 of the molar value. Where two headings read alike, the source gives them in different places.

What was measured:
SlCOI1-SlJAZ1 = target: T1, SlCOI1-SlJAZ1 (Solanum lycopersicum, UniProt A0A3Q7H988+Q6TDU2); experiment: AlphaScreen assay, GST-SlCOI1 and Fl-SlJAZP1; format: binding; settings: calculated from AlphaScreen, 5 nM SlCOI1, 10 nM Fl-SlJAZP1
T1 sequence (Q6TDU2 1-603): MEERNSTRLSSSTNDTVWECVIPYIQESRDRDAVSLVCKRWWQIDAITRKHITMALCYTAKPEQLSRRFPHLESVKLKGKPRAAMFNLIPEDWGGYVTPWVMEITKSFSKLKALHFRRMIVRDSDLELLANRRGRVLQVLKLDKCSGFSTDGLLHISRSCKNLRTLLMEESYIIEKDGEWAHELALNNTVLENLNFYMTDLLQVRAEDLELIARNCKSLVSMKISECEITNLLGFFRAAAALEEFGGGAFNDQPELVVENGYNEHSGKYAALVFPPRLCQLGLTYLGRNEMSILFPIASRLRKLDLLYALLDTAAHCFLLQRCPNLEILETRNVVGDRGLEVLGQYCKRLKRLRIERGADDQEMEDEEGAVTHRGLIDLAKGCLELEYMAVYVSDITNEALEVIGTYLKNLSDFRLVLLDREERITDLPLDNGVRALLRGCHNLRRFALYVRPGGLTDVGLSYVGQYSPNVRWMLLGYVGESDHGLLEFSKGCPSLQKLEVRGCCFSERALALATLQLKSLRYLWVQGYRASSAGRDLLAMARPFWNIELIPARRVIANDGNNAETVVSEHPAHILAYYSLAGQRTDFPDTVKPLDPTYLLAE
T1 sequence (A0A3Q7H988 159-185): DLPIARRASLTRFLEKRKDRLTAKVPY
T1 sequence (Q39255 1-160 partner): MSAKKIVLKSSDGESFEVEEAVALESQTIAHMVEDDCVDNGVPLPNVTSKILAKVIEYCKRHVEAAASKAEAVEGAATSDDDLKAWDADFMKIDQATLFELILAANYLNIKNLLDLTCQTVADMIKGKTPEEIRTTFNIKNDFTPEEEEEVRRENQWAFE
Method: (§1) AlphaScreen experiments were performed at 25 °C in the incubation buffer. 15 μL of the reaction mixture containing the incubation buffer, 5 nM SlCOI1, 10 nM Fl-SlJAZPs and various concentrations of COR or JA-Ile was added to a 1/2 Area AlphaPlate-96 (PerkinElmer), and then incubated for 1 h at 4 °C. Then, 10 μL of a detection mixture containing incubation buffer, 0.1 μL of FITC-coated donor beads, 0.1 μL of GST-coated acceptor beads was added to each well. Finally, the mixture was incubated for 12 h and the luminescence signals were detected using the Envision 2105 Multimode Plate Reader (PerkinElmer). The experiment was repeated three times, and the data are presented as average values with standard deviation. To clarify the difference in the affinity of the ligands with each COI1/JAZ co-receptor, the results of the AlphaScreen assay are shown with the normalized signal intensity change (Figs. 3, 4, and Supplementary Fig. S9) along with the raw signal intensity (Supplementary Figs. S8, S10, and S13)[40].

SlCOI1-SlJAZ5 = target: T2, SlCOI1-SlJAZ5 (Solanum lycopersicum, UniProt A0A3Q7FUH8+Q6TDU2); experiment: AlphaScreen assay, GST-SlCOI1 and Fl-SlJAZP5; format: binding; settings: calculated from AlphaScreen, 5 nM SlCOI1, 10 nM Fl-SlJAZP5
T2 sequence (Q6TDU2 1-603): T1 sequence (Q6TDU2 1-603)
T2 sequence (A0A3Q7FUH8 327-353): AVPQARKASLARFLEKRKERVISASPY
T2 sequence (Q39255 1-160 partner): T1 sequence (Q39255 1-160 partner)
Method: as §1

SlCOI1-SlJAZ6 = experiment: AlphaScreen assay, GST-SlCOI1 and Fl-SlJAZP6; format: binding, Solanum lycopersicum; settings: calculated from AlphaScreen; 5 nM SlCOI1, 10 nM Fl-SlJAZP6
Method: as §1

SlCOI1-SlJAZ7 = target: T3, SlCOI1-SlJAZ7 (Solanum lycopersicum, UniProt Q6TDU2+Q9M723); experiment: AlphaScreen assay, GST-SlCOI1 and Fl-SlJAZP7; format: binding
T3 sequence (Q6TDU2 1-603): T1 sequence (Q6TDU2 1-603)
T3 sequence (Q9M723 174-200): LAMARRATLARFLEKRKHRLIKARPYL
T3 sequence (Q39255 1-160 partner): T1 sequence (Q39255 1-160 partner)
Method: as §1

SlCOI1-SlJAZ8 = experiment: AlphaScreen assay, GST-SlCOI1 and Fl-SlJAZP8; format: binding, Solanum lycopersicum; settings: calculated from AlphaScreen; 5 nM SlCOI1, 10 nM Fl-SlJAZP8
Method: as §1

SlCOI1-SlJAZ9 = experiment: AlphaScreen assay, GST-SlCOI1 and Fl-SlJAZP9; format: binding, Solanum lycopersicum; settings: calculated from AlphaScreen; 5 nM SlCOI1, 10 nM Fl-SlJAZP9
Method: as §1

SlCOI1-SlJAZ10 = experiment: AlphaScreen assay, GST-SlCOI1 and Fl-SlJAZP10; format: binding, Solanum lycopersicum; settings: calculated from AlphaScreen; 5 nM SlCOI1, 10 nM Fl-SlJAZP10
Method: as §1

SlCOI1-SlJAZ11 = experiment: AlphaScreen assay, GST-SlCOI1 and Fl-SlJAZP11; format: binding, Solanum lycopersicum; settings: calculated from AlphaScreen; 5 nM SlCOI1, 10 nM Fl-SlJAZP11
Method: as §1

SlCOI1-SlJAZ13 = target: T4, SlCOI1-SlJAZ13 (Solanum lycopersicum, UniProt A0A3Q7EQ67+Q6TDU2); experiment: AlphaScreen assay, GST-SlCOI1 and Fl-SlJAZP13; format: binding; settings: calculated from AlphaScreen, 5 nM SlCOI1, 10 nM Fl-SlJAZP13
T4 sequence (Q6TDU2 1-603): T1 sequence (Q6TDU2 1-603)
T4 sequence (A0A3Q7EQ67 85-111): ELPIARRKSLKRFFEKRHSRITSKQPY
T4 sequence (Q39255 1-160 partner): T1 sequence (Q39255 1-160 partner)
Method: as §1

[1] = test system: GST-SlCOI1 with FLAG-SlJAZ1-3/5–8; experiment: Pull down assay of GST-SlCOI1 with FLAG-SlJAZ (full-length proteins); format: binding, Solanum lycopersicum; settings: ligand 100 nM; full-length FLAG-SlJAZ1-3/5–8; immunoblotting
Description: (§2) SlJAZ genes were cloned from the tomato cultivar Micro-Tom and their FLAG-tag-fused proteins FLAG-SlJAZ1-11/13 expressed using the wheat germ-derived cell-free protein expression system (Supplementary Fig. S1). GST-fused SlCOI1 (GST-SlCOI1) was also expressed in Sf9 cultured insect cells (Supplementary Fig. S2). Arabidopsis ASK protein was co-expressed to improve the stability of SlCOI1[26].
(§3) Figure 2 (a) Pull down assay of GST-SlCOI1 with FLAG-SlJAZ (full-length proteins) in the presence of JA-Ile (100 nM). GST-SlCOI1 bound to FLAG-SlJAZ proteins was pulled down with anti-FLAG antibody and Protein G magnetic beads, and analyzed by immunoblotting (top: anti-GST-HRP conjugate for detection of GST-SlCOI1, bottom: anti-FLAG antibody and anti mouse-IgG HRP conjugate for detection of FLAG-SlJAZs). *or **show the bands derived from heavy chain or light chain of the anti-FLAG antibody. (b) Pull down assay of GST-SlCOI1 with Fl-SlJAZPs in the presence of JA-Ile (100 nM). GST-SlCOI1 bound to Fl-SlJAZPs was pulled down with anti-fluorescein antibody and Protein G magnetic beads, and analyzed by immunoblotting (anti-GST-HRP conjugate for detection of GST-SlCOI1).
(§4) All chemicals (JA-Ile or COR) were dissolved in ethanol to generate 10 mM stock solutions and diluted with 20% ethanol aq. for preparation of 100 μM stock solutions. For the pull-down experiments using full-length SlJAZ proteins, purified GST-COI1 (5 nM), FLAG-tagged SlJAZ (each 20 µL of the translation mixture), and the ligands (COR or JA-Ile) in 350 µL of incubation buffer (50 mM Tris–HCl buffer, pH 7.8, 100 mM NaCl, 20 mM 2-mercaptoethanol, 10% glycerol, 0.1% Tween20, 100 nM inositol-1,2,4,5,6-pentakisphosphate (IP5)) were combined with anti-FLAG antibody (0.2 µL, Sigma Aldrich, F1804, clone M2), and incubated for 10–15 h at 4 °C with rotation. After incubation, the samples were combined with SureBeads Protein G (10 µL in 50% incubation buffer slurry, Bio-Rad). After 3 h incubation at 4 °C with rotation, the samples were washed three times with 350 µL of fresh incubation buffer. The washed beads were resuspended in 35 µL of SDS-PAGE loading buffer containing dithiothreitol (DTT, 100 mM). After heating for 10 min at 60 °C, the samples were subjected to SDS-PAGE and analyzed by western blotting. The bound GST-COI1 protein was detected using anti-GST HRP conjugate (RPN1236, GE Healthcare, 5000-fold dilution in blocking buffer (Nakalai tesque, Inc., Japan). FLAG-JAZ proteins were detected using anti-FLAG antibody (1000-fold dilution in blocking buffer) and anti-mouse IgG-HRP antibody (Southern Biotech. Inc., Birmingham, US, 1031-05, 20,000-fold dilution in blocking buffer). Three independent replicates using proteins purified at different times were done with similar results (Supplementary Fig. S3).

[2] = test system: GST-SlCOI1 with FLAG-SlJAZ4/13; experiment: as above; format: binding, Solanum lycopersicum; settings: ligand 100 nM; full-length FLAG-SlJAZ4/13; immunoblotting
Description: as §2, §3, §4

[3] = test system: GST-SlCOI1 with FLAG-SlJAZ9-11; experiment: as above; format: binding, Solanum lycopersicum; settings: ligand 100 nM; full-length FLAG-SlJAZ9-11; immunoblotting
Description: as §2, §3, §4

[4] = target: GST-SlCOI1 and SlJAZP1-4DOD; experiment: AlphaScreen assay, GST-SlCOI1 and swapped SlJAZP1-4DOD; format: binding, Solanum lycopersicum; settings: swapped peptide: DOD sequence of SlJAZP1 swapped with that of SlJAZP4
Description: To examine the effect of the DOD sequence, we studied SlJAZP1-4/13 which incorporate the same JAZ degron sequence LPIARR and alternative DOD sequence XSLX. […] We prepared SlJAZP1-3DOD and SlJAZP1-4DOD, wherein the DOD sequence of SlJAZP1 was swapped with those of SlJAZP3 and SlJAZP4, respectively (Fig. 4a, and Supplementary Figs. S11–12). […] Next, we examined whether the DOD sequence also affected the affinity of SlJAZP5/6/8 with another JAZ degron sequence VPQARK. […] We prepared DOD swapped peptides SlJAZP5-2DOD (ASLA of SlJAZ5 to NSLT of SlJAZ2) and SlJAZP2-5DOD (NSLT of SlJAZ2 to ASLA of SlJAZ5) (Fig. 4a, and Supplementary Figs. S11–12).
as §1, with “To clarify the difference in the affinity of the ligands with each COI1/JAZ co-receptor, the results of the AlphaScreen assay are shown with the normalized signal intensity change (Figs. 3, 4, and Supplementary Fig. S9) along with the raw signal intensity (Supplementary Figs. S8, S10, and S13)[40].” left out

| Compound | pKd (SlCOI1-SlJAZ1) | pKd (SlCOI1-SlJAZ5) | pKd (SlCOI1-SlJAZ6) | pKd (SlCOI1-SlJAZ7) | pKd (SlCOI1-SlJAZ8) | pKd (SlCOI1-SlJAZ9) | pKd (SlCOI1-SlJAZ10) | pKd (SlCOI1-SlJAZ11) | pKd (SlCOI1-SlJAZ13) | pull-down of GST-SlCOI1 [1] | pull-down of GST-SlCOI1 [2] | pull-down of GST-SlCOI1 [3] | pKd (SlCOI1-SlJAZ1; read-out: Kd) | pKd (SlCOI1-SlJAZ5; read-out: Kd) | pKd (SlCOI1-SlJAZ7; calculated from AlphaScreen, 5 nM SlCOI1, 10 nM Fl-SlJAZP7, read-out: Kd) | pKd (SlCOI1-SlJAZ13; read-out: Kd) | pKd [4] |
| --- | --- | --- | --- | --- | --- | --- | --- | --- | --- | --- | --- | --- | --- | --- | --- | --- | --- |
| CC[C@H]1C=C(C(=O)N[C@@]2(C(=O)O)C[C@@H]2CC)[C@H]2CCC(=O)[C@H]2C1 [COR, coronatine] | 8.31 | 9.19 | 9.12 | 9.64 | 9.41 | 7.35 | 7.05 | 7.20 | 7.09 | Identical results | Identical results | Identical results | – | – | – | – | – |
| CC/C=C\C[C@@H]1C(=O)CC[C@@H]1CC(=O)N[C@H](C(=O)O)[C@@H](C)CC [JA-Ile, (+)-7-iso-Jasmonoyl-L-isoleucine] | – | – | 8.39 | – | 8.66 | 5.96 | 6.40 | 6.37 | – | pulled-down GST-SlCOI1 | could not pull-down the GST-SlCOI1 | not FLAG-SlJAZ9-11 pulled-down GST-SlCOI1 | 8.04 | 8.38 | 7.79 | 6.20 | 7.33 |
